Assay results from US11363816B2, “4-amino-6-(heterocyclic)picolinates and 6-amino-2-(heterocyclic)pyramidine-4-carboxylates and their use as herbicides” (Dow AgroSciences LLC, priority 2017, dated 2022).

Key:
Assay type in all cases: in vivo
[1] = system: weeds; assay: Herbicidal activity, overall conclusion from greenhouse and field results; details: summary of Tables 1 to 8
Description: These new chemical herbicides offer a broader spectrum of weed control, higher activity against weeds, and provide a way to address the management of weeds that developed resistance with respect to herbicides traditionally used to control them.

[2] = system: SINAR=Sinapis arvensis L. (wild mustard); assay: Postemergence field trial, Granon, Spain (Table 7)
Procedure: Field trials were established in Spain (Banares and Granon) and Germany (Bielefeld) to evaluate the efficacy of Compound 5, Compound 6, and Compound 7. Trials were designed as randomized complete blocks with three to four replicates. Trials were established in winter wheat with natural weed population with plot sizes of 2-2.5 meters (m) by 6-8 m (width×length). The crops were grown using normal cultural practices for fertilization, seeding, and maintenance to ensure good growth of the crop. All herbicide treatments were applied post-emergence with applications made to the crops at the BBCH 21 to 23 growth stage. Herbicides were applied with backpack or bicycle sprayers using air as a propellant. The sprayers utilized flat fan air-induction spray nozzles calibrated to deliver a uniform spray pattern that provided thorough coverage of the foliage using a 200 L/ha spray volume. All treatments were applied with methylated seed oil (MSO) at 1.25% v/v. Phytotoxicity to the weeds was assessed visually at several intervals after application as percent overall control, compared to an untreated control plot. In general, three to four replicates were assessed for each treatment. All treatment results are an average of three or four replicates. Compound 5, Compound 6, and Compound 7 were applied as emulsifiable concentrate (EC) formulations at 100 g ae/L EC, respectively.

[3] = system: POLCO=Polygonum convolvulus L. (wild buckwheat); assay: Postemergence field trial, Hanley, Saskatchewan, Canada; details: 66DAAA
Procedure: (§1) Field trials were established in Canada (in Ellerslie, Alberta; Nisku, Alberta and Hanley, Saskatchewan) to evaluate the efficacy of Compound 5, Compound 6, and Compound 7. Trials were designed as randomized complete blocks with four replicates. Trials were established in spring wheat with natural weed population with plot sizes of 2-3 meters (m) by 8-10 m (width×length). The crops were grown using normal cultural practices for fertilization, seeding, and maintenance to ensure good growth of the crop.
(§2) All herbicide treatments were applied post-emergence with applications made to the crops at BBCH (Phenological development stages of a plant) 14 to 22 growth stage. Herbicides were applied with backpack or bicycle sprayers using carbon dioxide (CO2) as a propellant. The sprayers utilized flat fan air-induction spray nozzles calibrated to deliver a uniform spray pattern that provided thorough coverage of the foliage using a 100 L/ha spray volume. All treatments were applied with methylated seed oil (MSO) at 1.25% v/v. Phytotoxicity to the weeds was assessed visually at several intervals after application as percent overall control, compared to an untreated control plot. In general, four replicates were assessed for each treatment. All treatment results are an average of four replicates.
(§3) Compound 5, Compound 6 and Compound 7 were applied as emulsifiable concentrate (EC) formulations at 100 g ae/L EC, respectively.

[4] = system: KCHSC=Kochia scoparia (L.) Schrad. (Kochia); assay: as above; details: 66DAAA
Procedure: as §1, §2, §3

[5] = system: CHEAL=Chenopodium album L. (common lambsquarters); assay: as above; details: 66DAAA
Procedure: as §1, §2, §3

Row | SMILES | herbicidal activity (overall conclusion) [1] | Percent (%) Visual Control SINAR 48DAAA ([2]; 5 g ae/ha) [%] | Percent (%) Visual Control SINAR 48DAAA ([2]; 10 g ae/ha) [%] | Percent (%) Visual Control SINAR 48DAAA ([2]; 20 g ae/ha) [%] | Percent (%) Visual Control POLCO ([3]; 10 g ae/ha) [%] | Percent (%) Visual Control POLCO ([3]; 20 g ae/ha) [%] | Percent (%) Visual Control POLCO ([3]; 40 g ae/ha) [%] | Percent (%) Visual Control KCHSC ([4]; 10 g ae/ha) [%] | Percent (%) Visual Control KCHSC ([4]; 20 g ae/ha) [%] | Percent (%) Visual Control KCHSC ([4]; 40 g ae/ha) [%] | Percent (%) Visual Control CHEAL ([5]; 10 g ae/ha) [%] | Percent (%) Visual Control CHEAL ([5]; 20 g ae/ha) [%] | Percent (%) Visual Control CHEAL ([5]; 40 g ae/ha) [%]
1 | C#CCOC(=O)c1nc(-c2ccc3cc[nH]c3c2F)c(F)c(N)c1Cl [Compound 5, prop-2-yn-1-yl 4-amino-3-chloro-5-fluoro-6-(7-fluoro-1H-indol-6-yl)picolinate] | superior herbicidal activity over Compound 7 | 85 | 94.8 | 95 | – | – | – | – | – | – | – | – | –
2 | N#CCOC(=O)c1nc(-c2ccc3cc[nH]c3c2F)c(F)c(N)c1Cl [Compound 6, cyanomethyl 4-amino-3-chloro-5-fluoro-6-(7-fluoro-1H-indol-6-yl)picolinate] | superior herbicidal activity over Compound 7 | 82.7 | 95 | 95.2 | 47.5 | 68.8 | 85.8 | 62 | 81.5 | 92.5 | 95 | 98.3 | 99
3 | Nc1c(F)c(-c2ccc3cc[nH]c3c2F)nc(C(=O)OCc2ccccc2)c1Cl [Compound 7, benzyl 4-amino-3-chloro-5-fluoro-6-(7-fluoro-1H-indol-6-yl)picolinate, reference compound] | – | 73.3 | 80.7 | 89.3 | 46.3 | 63.3 | 70 | 45 | 72 | 78.8 | 95.5 | 98.5 | 98.8
